Test results: patent US9216973B2, “Insecticidal compounds” (Syngenta Participations AG, priority 2008, dated 2015)

What was measured:
Assay type in all cases: in vivo
[1] = system: Heliothis virescens (Tobacco budworm); experiment: Heliothis virescens egg test on artificial diet; conditions: for pest or weed control at 200 ppm: 96 h, 200 ppm (concentration in well 18 ppm), eggs 0-24 h old on artificial diet, egg mortality, larval mortality, growth regulation after 4 days, read-out: control of Heliothis virescens; for effect on mortality, feeding behavior, or growth regulation: same protocol, 200 ppm
Description: (§1) This Example illustrates the insecticidal and acaricidal properties of compounds of formula (I). The tests were performed as follows:
(§2) Cotton leaf discs were placed on agar in a 24-well microtiter plate and sprayed with test solutions at an application rate of 200 ppm. After drying, the leaf discs were infested with 5 L1 larvae. The samples were checked for mortality, feeding behavior, and growth regulation 3 days after treatment (DAT). The following compound gave at least 80% control of Spodoptera littoralis: A1, A2, A5, A6, A7, A8, A10, A11, A12, A13, A14, A15, A16, A17, A18, A19, A21, A22, A23, A24, A25, A30, A31, A32, A33, A34, A35, A39, A40, A41 A42, A43, A44, A45, A46, A47, A48, A49, A50, A51, A53, A54, A55, A59, A60, A61, A62. Heliothis virescens (Tobacco budworm): Eggs (0-24 h old) were placed in 24-well microtiter plate on artificial diet and treated with test solutions at an application rate of 200 ppm (concentration in well 18 ppm) by pipetting. After an incubation period of 4 days, samples were checked for egg mortality, larval mortality, and growth regulation. The following compound gave at least 80% control of Heliothis virescens: A1, A2, A3, A4, A5, A6, A7, A8, A10, A11, A12, A13, A14, A15, A16, A18, A19, A21, A22, A24, A25, A30, A31, A32, A33, A34, A35, A37, A38, A39, A40, A42, A43, A44, A45, A46, A47, A48, A49, A50, A51, A55, AA57, A58, A59, A60, A61, A62. Plutella xylostella (Diamond back moth): 24-well microtiter plate (MTP) with artificial diet was treated with test solutions at an application rate of 200 ppm (concentration in well 18 ppm) by pipetting. After drying, the MTP's were infested with L2 larvae (7-12 per well). After an incubation period of 6 days, samples were checked for larval mortality and growth regulation. The following compound gave at least 80% control of Plutella xylostella: A1, A2, A5, A6, A7, A8, A9, A10, A11, A12, A13, A14, A15, A16, A17, A18, A19, A20, A21, A22, A24, A25, A30, A31, A32, A33, A34, A35, A37, A38, A39, A40, A42, A43, A44, A45, A46, A47, A48, A49, A50, A51, A52, A53, A54, A55, A57, A58, A59, A60, A61, A62, B3. Diabrotica balteata (Corn root worm): A 24-well microtiter plate (MTP) with artificial diet was treated with test solutions at an application rate of 200 ppm (concentration in well 18 ppm) by pipetting. After drying, the MTP's were infested with L2 larvae (6-10 per well). After an incubation period of 5 days, samples were checked for larval mortality and growth regulation. The following compound gave at least 80% control of Diabrotica balteata: A1, A2, A5, A6, A7, A10, A11, A12, A13, A14, A15, A16, A17, A18, A19, A21, A22, A24, A25, A30, A31, A32, A33, A34, A35, A38, A39, A40, A42, A43, A44, A45, A46, A47, A48, A49, A50, A59, A60, A61, A62. Thrips tabaci (Onion thrips): Sunflower leaf discs were placed on agar in a 24-well microtiter plate and sprayed with test solutions at an application rate of 200 ppm. After drying, the leaf discs were infested with an […] population of mixed ages. After an incubation period of 7 days, samples were checked for mortality. The following compounds gave at least 80% control of Thrips tabaci: A1, A2, A5, A6, A7, A8, A10, A12, A13, A14, A15, A16, A17, A18, A19, A21, A24, A25, A30, A31, A32, A33, A34, A35, A39, A42, A43, A44, A45, A46, A47, A48, A49, A50, A51, A53, A54, A57, A58, A59, A60, A61, A62. Tetranychus urticae (Two-spotted spider mite): Bean leaf discs on agar in 24-well microtiter plates were sprayed with test solutions at an application rate of 200 ppm. After drying, the leaf discs are infested with mite populations of mixed ages. 8 days later, discs are checked for egg mortality, larval mortality, and adult mortality. The following compound gave at least 80% control of Tetranychus urticae: A1, A2, A4, A5, A6, A7, A8, A10, A11, A12, A13, A14, A15, A16, A17, A18, A19, A20, A21, A22, A30, A31, A32, A33, A34, A35, A39, A40, A41, A42, A43, A44, A45, A46, A47, A48, A49, A50, A51, A53, A54, A55, A57, A59, A60, A61, A62.

[2] = system: Plutella xylostella (Diamond back moth); experiment: Plutella xylostella larvae test on artificial diet; conditions: for pest or weed control at 200 ppm: 144 h, 200 ppm (concentration in well 18 ppm), artificial diet, L2 larvae, larval mortality and growth regulation after 6 days; for effect on mortality, feeding behavior, or growth regulation: same protocol, 200 ppm
Description: as §1, §2

[3] = system: Diabrotica balteata (Corn root worm); experiment: Diabrotica balteata larvae test on artificial diet; conditions: for pest or weed control at 200 ppm: 120 h, 200 ppm (concentration in well 18 ppm), artificial diet, L2 larvae, larval mortality and growth regulation after 5 days; for effect on mortality, feeding behavior, or growth regulation: same protocol, 200 ppm
Description: as §1, §2

Row | SMILES | pest or weed control at 200 ppm [1] | pest or weed control at 200 ppm [2] | pest or weed control at 200 ppm [3] | effect on mortality, feeding behavior, or growth regulation [1] | effect on mortality, feeding behavior, or growth regulation [2] | effect on mortality, feeding behavior, or growth regulation [3]
1 | CC1(NC(=O)c2ccc(C3=NOC(c4cc(Cl)cc(Cl)c4)(C(F)(F)F)C3)c3ccccc23)CSC1 (stereo not shown) [A1] | ≥ 80% | ≥ 80% | ≥ 80% |  |  | 
2 | O=C(NC1CSC1)c1ccc(C2=NOC(c3cc(Cl)cc(Cl)c3)(C(F)(F)F)C2)c2ccccc12 (stereo not shown) [A2] | ≥ 80% | ≥ 80% | ≥ 80% |  |  | 
3 | Cc1cc(C2=NOC(c3cc(Cl)cc(Cl)c3)(C(F)(F)F)C2Br)ccc1C(=O)NC1(C)CSC1 (stereo not shown) [A5] | ≥ 80% | ≥ 80% | ≥ 80% |  |  | 
4 | Cc1cc(C2=NOC(c3cc(Cl)cc(Cl)c3)(C(F)(F)F)C2Br)ccc1C(=O)NC1CSC1 (stereo not shown) [A6] | ≥ 80% | ≥ 80% | ≥ 80% |  |  | 
5 | Cc1cc(C2=NOC(c3cc(Cl)cc(Cl)c3)(C(F)(F)F)C2Br)ccc1C(=O)NC1C[S+]([O-])C1 (stereo not shown) [A7] | ≥ 80% | ≥ 80% |  |  |  | 
6 | Cc1cc(N2CC(c3cc(Cl)cc(Cl)c3)(C(F)(F)F)OC2=O)ccc1C(=O)NC1C[S+]([O-])C1 (stereo not shown) [A10] | ≥ 80% | ≥ 80% | ≥ 80% |  |  | 
7 | Cc1cc(N2CC(c3cc(Cl)cc(Cl)c3)(C(F)(F)F)OC2=O)ccc1C(=O)NC1CSC1 (stereo not shown) [A11] | ≥ 80% | ≥ 80% | ≥ 80% |  |  | 
8 | Cc1cc(C2=NN(C)C(c3cc(Cl)cc(Cl)c3)(C(F)(F)F)C2)ccc1C(=O)NC1(C)CSC1 (stereo not shown) [A12] | ≥ 80% | ≥ 80% | ≥ 80% |  |  | 
9 | Cc1cc(C2=NN(C)C(c3cc(Cl)cc(Cl)c3)(C(F)(F)F)C2)ccc1C(=O)NC1C[S+]([O-])C1 (stereo not shown) [A13] | ≥ 80% | ≥ 80% | ≥ 80% |  |  | 
10 | Cc1cc(C2=NN(C)C(c3cc(Cl)cc(Cl)c3)(C(F)(F)F)C2)ccc1C(=O)NC1CSC1 (stereo not shown) [A14] | ≥ 80% | ≥ 80% | ≥ 80% |  |  | 
11 | O=C(NC1CS(=O)(=O)C1)c1ccc(C2=NOC(c3cc(Cl)cc(Cl)c3)(C(F)(F)F)C2)c2ccccc12 (stereo not shown) [A15] | ≥ 80% | ≥ 80% | ≥ 80% |  |  | 
12 | O=C(NC1C[S+]([O-])C1)c1ccc(C2=NOC(c3cc(Cl)cc(Cl)c3)(C(F)(F)F)C2)c2ccccc12 (stereo not shown) [A16] | ≥ 80% | ≥ 80% | ≥ 80% |  |  | 
13 | Cc1cc(C2=NOC(c3cc(Cl)cc(Cl)c3)(C(F)(F)F)O2)ccc1C(=O)NC1CSC1 (stereo not shown) [A17] |  | ≥ 80% | ≥ 80% |  |  | 
14 | Cc1cc(C2CC(c3cc(Cl)cc(Cl)c3)(C(F)(F)F)ON2C)ccc1C(=O)NC1C[S+]([O-])C1 (stereo not shown) [A18] | ≥ 80% | ≥ 80% | ≥ 80% |  |  | 
15 | Cc1cc(C2CC(c3cc(Cl)cc(Cl)c3)(C(F)(F)F)ON2C)ccc1C(=O)NC1CS(=O)(=O)C1 (stereo not shown) [A19] | ≥ 80% | ≥ 80% | ≥ 80% |  |  | 
16 | Cc1cc(C2CC(c3cc(Cl)cc(Cl)c3)(C(F)(F)F)ON2C)ccc1C(=O)NC1CSC1 (stereo not shown) [A21] | ≥ 80% | ≥ 80% | ≥ 80% |  |  | 
17 | O=C(NC1CS(=O)(=O)C1)c1ccc(C2=NOC(c3cc(Cl)cc(Cl)c3)(C(F)(F)F)C2)c2nsnc12 (stereo not shown) [A22] | ≥ 80% | ≥ 80% | ≥ 80% |  |  | 
18 | Cc1nc2c(C3=NOC(c4cc(Cl)cc(Cl)c4)(C(F)(F)F)C3)ccc(C(=O)NC3CS(=O)(=O)C3)c2o1 (stereo not shown) [A26] |  |  |  | little or no effect | little or no effect | little or no effect
19 | Cc1nc2c(C3=NOC(c4cc(Cl)cc(Cl)c4)(C(F)(F)F)C3)ccc(C(=O)NC3(C)CSC3)c2o1 (stereo not shown) [A27] |  |  |  | little or no effect | little or no effect | little or no effect
20 | Cc1nc2c(C3=NOC(c4cc(Cl)cc(Cl)c4)(C(F)(F)F)C3)ccc(C(=O)NC3C[S+]([O-])C3)c2o1 (stereo not shown) [A28] |  |  |  | little or no effect | little or no effect | little or no effect
21 | Cc1nc2c(C3=NOC(c4cc(Cl)cc(Cl)c4)(C(F)(F)F)C3)ccc(C(=O)NC3CSC3)c2o1 (stereo not shown) [A29] |  |  |  | little or no effect | little or no effect | little or no effect
22 | Cc1cc(C2=NOC(c3cc(Cl)cc(Cl)c3)(C(F)(F)F)C2Cl)ccc1C(=O)NC1CS(=O)(=O)C1 (stereo not shown) [A32] | ≥ 80% | ≥ 80% | ≥ 80% |  |  | 
23 | Cc1cc(C2=NOC(c3cc(Cl)cc(Cl)c3)(C(F)(F)F)C2Cl)ccc1C(=O)NC1(C)CSC1 (stereo not shown) [A33] | ≥ 80% | ≥ 80% | ≥ 80% |  |  | 
24 | Cc1cc(C2=NOC(c3cc(Cl)cc(Cl)c3)(C(F)(F)F)C2Cl)ccc1C(=O)NC1C[S+]([O-])C1 (stereo not shown) [A34] | ≥ 80% | ≥ 80% | ≥ 80% |  |  | 
25 | Cc1cc(C2=NOC(c3cc(Cl)cc(Cl)c3)(C(F)(F)F)C2O)ccc1C(=O)NC1CS(=O)(=O)C1 (stereo not shown) [A51] | ≥ 80% | ≥ 80% |  |  |  | 
26 | Cc1cc(C2=NOC(c3cc(Cl)cc(Cl)c3)(C(F)(F)F)C2O)ccc1C(=O)NC1C[S+]([O-])C1 (stereo not shown) [A53] |  | ≥ 80% |  |  |  | 
27 | Cc1cc(C2=NOC(c3cc(Cl)cc(Cl)c3)(C(F)(F)F)C2O)ccc1C(=O)NC1CSC1 (stereo not shown) [A54] |  | ≥ 80% |  |  |  | 
28 | Cc1cc(C2=NOC(c3cc(Cl)cc(Cl)c3)(C(F)(F)F)/C2=N/O)ccc1C(=O)NC1CS(=O)(=O)C1 (stereo not shown) [A55] | ≥ 80% | ≥ 80% |  |  |  | 
